In brackets after ≈: the same amount, converted by molar mass. One block for each compound: values may come before it.
Key:
[1] = system: S. aureus ATCC 43300 (MRSA, FQ-S); assay: MIC, selected panel of bacterial strains (Example 5); format: cell-based, Staphylococcus aureus; conditions: Staphylococcus aureus, read-out: MICs against Gram positive bacteria S. aureus ATCC 43300 (MRSA, FQ-S)
[2] = system: GN52 Acinetobacter baumannii levofloxacin resistant clinical isolate; assay: Chequerboard synergy with polymyxin B, FICI (Example 6); format: cell-based
Excerpt: (§1) A chequerboard technique was used to identify possible synergistic or antagonistic interactions between the 4-oxoquinolizines compounds, levofloxacin and polymyxin B. Levofloxacin was included as a control. […] Final dilutions were made in Mueller-Hinton broth, the specific test medium used for MIC determinations according to CLSI guidelines (CLSI. Methods for Dilution Antimicrobial Susceptibility Tests for Bacteria That Grow Aerobically; Approved Standard-Eighth Edition (2009). CLSI Document M07-A8. CLSI, Wayne, Pa. 19087-1898, USA.). The test medium used was a cation-adjusted Mueller-Hinton Broth II (Becton Dickinson UK Ltd., Oxford Science Park, Oxford, UK, OX4 4DQ).
(§2) The compounds 2, 33 and 35, as well as levofloxacin were tested in combination with polymyxin B on the following isolates: GN31 Acinetobacter baumannii—antibiotic susceptible clinical isolate, GN52 Acinetobacter baumannii—levofloxacin resistant clinical isolate, GN56 Acinetobacter baumannii—levofloxacin resistant clinical isolate, GN48 Klebsiella pneumoniae—NCTC 13443—NDM-1-metallo-β-lactamase and GN10 Pseudomonas aeruginosa—ATCC 27853—antibiotic susceptible reference isolate. All isolates are from the collection maintained at Quotient Bioresearch Ltd., Cambridge, UK.
(§3) The MIC values for the compounds and polymyxin B and levofloxacin were determined by broth microdilution following CLSI guidelines, and the MICs of agents in combination were determined as described by Pillai et. al (Pillai S K, Moellering R C Jr, Eliopoulis G M; Antimicrobial Combinations in Antibiotics in Laboratory Medicine 5th Edition (V. Lorian Ed) (2005) p 365-440). Initial MIC results were used to determine the microtiter plate patterns for the chequerboards. A suitable doubling dilution concentration range was selected such that the combination antibiotic range was at least two concentrations above and four concentrations below the MIC for each isolate. A fixed range of 0.008 to 8 mg/L was tested for polymyxin B except in the case of A. baumannii GN31 where a range of 0.004 to 4 mg/L was tested when in combination with the compounds 2, 33 and 35 as well as levofloxacin.
(§4) From the raw data, fractional inhibitory concentration indices (FICI) were determined for the compounds of the invention and levofloxacin together with polymyxin B for each isolate as follows:
(§5) FICX=concentration of the combination antibiotic in a particular row MIC of the combination drug alone
(§6) FICY=MIC of polymyxin B in combination[…]MIC of the polymyxin B alone
(§7) Additionally isobolograms were created to represent the same data visually. Here, the MIC of polymyxin B was plotted against every concentration of the combination antibiotic up to the MIC.

[3] = system: GN56 Acinetobacter baumannii levofloxacin resistant clinical isolate; assay: as above; format: cell-based
Excerpt: as §1, §2, §3, §4, §5, §6, §7

[4] = system: A. baumannii A472; assay: Preliminary MBC without and with sub-inhibitory polymyxin B (Example 4); format: cell-based, Acinetobacter baumannii; conditions: Acinetobacter baumannii, A472, read-out: MBC +[…] PB, A. baumannii A472; +[…] polymyxin B; preliminary MBC; 1st experiment
[5] = system: A. baumannii A489; assay: as above; format: cell-based, Acinetobacter baumannii; conditions: Acinetobacter baumannii, A489, read-out: MBC +[…] PB, A. baumannii A489; +[…] polymyxin B; preliminary MBC; 1st experiment
[6] = system: A. baumannii J2; assay: MIC without and with sub-inhibitory polymyxin B (Example 4); format: cell-based, Acinetobacter baumannii; conditions: 1st experiment
[7] = system: A. baumannii NCTC 13301; assay: as above; format: cell-based, Acinetobacter baumannii
[8] = system: A. baumannii A401; assay: Preliminary MBC without and with sub-inhibitory polymyxin B (Example 4); format: cell-based, Acinetobacter baumannii; conditions: Acinetobacter baumannii, A401, read-out: MBC +0.06 μg/ml PB, A baumannii A 401, +0.06 μg/ml polymyxin B, 1st experiment
[9] = system: A. baumannii A401; assay: MIC without and with sub-inhibitory polymyxin B (Example 4); format: cell-based, Acinetobacter baumannii; conditions: 1st experiment
[10] = system: Acinetobacter sp. (H064200250); assay: as above; format: cell-based; conditions: 1st experiment
[11] = system: A. baumannii J2; assay: Preliminary MBC without and with sub-inhibitory polymyxin B (Example 4); format: cell-based, Acinetobacter baumannii; conditions: Acinetobacter baumannii, J2, read-out: MBC +[…] PB, A. baumannii J2; +[…] polymyxin B; preliminary MBC; 1st experiment
[12] = system: A. baumannii A472; assay: MIC without and with sub-inhibitory polymyxin B (Example 4); format: cell-based, Acinetobacter baumannii; conditions: 1st experiment
[13] = system: A. baumannii A14; assay: Preliminary MBC without and with sub-inhibitory polymyxin B (Example 4); format: cell-based, Acinetobacter baumannii; conditions: A. baumannii A14, preliminary MBC, 1st experiment
[14] = system: A. baumannii A387; assay: as above; format: cell-based, Acinetobacter baumannii; conditions: Acinetobacter baumannii, A387, read-out: MBC +0.06 μg/ml PB, A. baumannii A387, +0.06 μg/ml polymyxin B, 1st experiment
[15] = system: A. baumannii A489; assay: MIC without and with sub-inhibitory polymyxin B (Example 4); format: cell-based, Acinetobacter baumannii; conditions: 1st experiment
[16] = system: A. baumannii A14; assay: as above; format: cell-based, Acinetobacter baumannii; conditions: 1st experiment
[17] = system: strains of A. baumannii and one strain of Acinetobacter sp.; assay: MIC with sub-inhibitory concentrations (0.25x MIC) of polymyxin B, panel of Acinetobacter strains (Example 4); format: cell-based; conditions: 1st experiment; […] polymyxin B; ATCC 19606, A329, A390 and A473 not taken
[18] = system: A. baumannii NCTC 13301; assay: Preliminary MBC without and with sub-inhibitory polymyxin B (Example 4); format: cell-based, Acinetobacter baumannii; conditions: Acinetobacter baumannii, NCTC13301, read-out: MBC +[…] PB
Procedure: (§8) The plates were incubated for 18-20 hours at 37° C. The MBC was read as the lowest concentration at which colony growth was ca. 90% less than the positive control (i.e. usually where single colonies or no colonies were observed).

[19] = system: Acinetobacter sp. (H064200250); assay: as above; format: cell-based; conditions: Acinetobacter, read-out: MBC +[…] PB, Acinetobacter spp. H064200250; +[…] polymyxin B; preliminary MBC; 1st experiment
Procedure: as §8

[20] = system: A. baumannii ATCC 19606; assay: as above; format: cell-based, Acinetobacter baumannii; conditions: Acinetobacter baumannii, ATCC19606, read-out: MBC +0.06 μg/ml PB, A. baumannii ATCC 19606, +0.06 μg/ml polymyxin B, 1st experiment
[21] = system: A. baumannii ATCC 19606; assay: MIC without and with sub-inhibitory polymyxin B (Example 4); format: cell-based, Acinetobacter baumannii; conditions: 1st experiment
[22] = system: A. baumannii A387; assay: as above; format: cell-based, Acinetobacter baumannii; conditions: 1st experiment
[23] = in combination with polymyxin B
[24] = polymyxin B with the named antibiotic

SMILES: Cc1c(C2=CCNCC2)c(F)cn2c(=O)c(C(=O)[O-])cc(C3CC3)c12.[K+] [Compound 62K salt, potassium 8-(1,2,3,6-tetrahydropyridin-4-yl)-1-cyclopropyl-7-fluoro-9-methyl-4-oxo-4H-quinolizine-3-carboxylate]
MIC [1]: 0.125 µg/mL

SMILES: Cc1c(-c2ccc(N)nc2)ccn2c(=O)c(C(=O)O)cc(C3CC3)c12 [Compound 33, 8-(6-amino-3-pyridyl)-1-cyclopropyl-9-methyl-4-oxo-quinolizine-3-carboxylic acid]
Combination drug MIC alone [2]: 4 µg/mL
FICx [2]: 0.25
FICy [2]: 0.24
FICI ([2]; combination with polymyxin B): 0.49
Synergy ([2]; combination with polymyxin B): Synergy (Synergy (FICI <0.5))
Combination drug concentration in combination [2, 23]: 1 mg/L
Polymyxin B MIC in combination [2, 24]: 0.12 µg/mL
Combination drug MIC alone [3]: 32 µg/mL
FICx [3]: 0.06
FICy [3]: 0.24
FICI ([3]; combination with polymyxin B): 0.30
Synergy ([3]; combination with polymyxin B): Synergy (Synergy (FICI <0.5))
Combination drug concentration in combination [3, 23]: 2 mg/L
Polymyxin B MIC in combination [3, 24]: 0.12 µg/mL

MIC without PB/MIC + PB ([6]; A. baumannii J2, ratio, PB […]): 64
MIC ([6]; Acinetobacter baumannii, J2, read-out: MIC +[…] PB, A. baumannii J2, +[…] polymyxin B): 0.06 µg/mL (≈ 0.162 µM)
MIC without PB/MIC + PB ([7]; A. baumannii NCTC 13301, ratio, PB […], 1st experiment): ≥512
MIC ([7]; Acinetobacter baumannii, NCTC13301, read-out: MIC +[…] PB): ≤ 0.03 µg/mL
MIC without PB/MIC + PB ([9]; A baumannii A 401, ratio, PB 0.06 μg/ml): 8
MIC ([9]; Acinetobacter baumannii, A401, read-out: MIC +0.06 μg/ml PB, A baumannii A 401, +0.06 μg/ml polymyxin B): 0.5 µg/mL
MIC without PB/MIC + PB ([10]; Acinetobacter spp. H064200250, ratio, PB […]): 128
MIC ([10]; Acinetobacter, read-out: MIC +[…] PB, Acinetobacter spp. H064200250, +[…] polymyxin B): 0.06 µg/mL (≈ 0.162 µM)
MIC without PB/MIC + PB ([12]; A. baumannii A472, ratio, PB […]): ≥128
MIC ([12]; Acinetobacter baumannii, A472, read-out: MIC +[…] PB, A. baumannii A472, +[…] polymyxin B): ≤ 0.03 µg/mL
MIC without PB/MIC + PB ([15]; A. baumannii A489, ratio, PB […]): ≥256
MIC ([15]; Acinetobacter baumannii, A489, read-out: MIC +[…] PB, A. baumannii A489, +[…] polymyxin B): ≤ 0.03 µg/mL
MIC +0.06 μg/ml PB ([16]; +0.06 μg/ml polymyxin B): 1 µg/mL
MIC ([16]; Acinetobacter baumannii, 24 h, without polymyxin B, read-out: MIC without PB): 16 µg/mL (≈ 43.2 µM)
MIC without PB/MIC + PB ([16]; ratio, PB 0.06 μg/ml): 16
MIC range with PB (0.25x MIC) Oct. 1, 2008 n = 8 [17]: ≤0.03 to 1 µg/mL
MIC without PB/MIC + PB ([21]; A. baumannii ATCC 19606, ratio, PB 0.06 μg/ml): ≥16
MIC ([21]; Acinetobacter baumannii, ATCC19606, read-out: MIC +0.06 μg/ml PB, A. baumannii ATCC 19606, +0.06 μg/ml polymyxin B): ≤ 0.03 µg/mL
MIC without PB/MIC + PB ([22]; A. baumannii A387, ratio, PB 0.06 μg/ml): ≥32
MIC ([22]; Acinetobacter baumannii, A387, read-out: MIC +0.06 μg/ml PB, A. baumannii A387, +0.06 μg/ml polymyxin B): ≤ 0.03 µg/mL
SMILES: Cc1c(-c2ccc(N)c(F)c2)c(F)cn2c(=O)c(C(=O)O)cc(C3CC3)c12 [Compound 17, 8-(3-fluoro-4-amino-phenyl)-1-cyclopropyl-7-fluoro-9-methyl-4-oxo-quinolizine-3-carboxylic acid]
MBC [4]: 0.125 µg/mL (≈ 0.338 µM)
MBC [5]: ≤ 0.03 µg/mL
MBC [8]: 0.5 µg/mL
MBC [11]: 0.06 µg/mL (≈ 0.162 µM)
MBC +0.06 μg/ml PB ([13]; +0.06 μg/ml polymyxin B): 1 µg/mL
MBC ([13]; Acinetobacter baumannii, without polymyxin B, read-out: MBC without PB): 16 µg/mL (≈ 43.2 µM)
MBC [14]: ≤ 0.03 µg/mL
MBC [18]: ≤ 0.03 µg/mL
MBC [19]: 0.06 µg/mL (≈ 0.162 µM)
MBC [20]: ≤ 0.03 µg/mL

— US20190105367A1, “ANTIMICROBIAL 4-OXOQUINOLIZINES” (Emergent Product Development Gaithersburg Inc., priority 2011, published 2019)
